Reference: PubChem BioAssay (NCI)
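Briefly, cells in 96-well plates were exposed to five compound concentrations for 48 h, and endpoints were estimated by linear interpolation. At the TGI there is no net growth.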

Tests used:
Assay in all cases: growth of human tumour cells (NCI), 48 h
786-0 renal = test system: 786-0 renal
A498 renal = test system: A498 renal
A549 NSCLC = test system: A549 NSCLC
ACHN renal = test system: ACHN renal
CAKI-1 renal = test system: CAKI-1 renal
CCRF-CEM leukemia = test system: CCRF-CEM leukemia
COLO 205 colon = test system: COLO 205 colon
DLD-1 colon = test system: DLD-1 colon
DMS 114 small cell lung = test system: DMS 114 small cell lung
DMS 273 small cell lung = test system: DMS 273 small cell lung
EKVX NSCLC = test system: EKVX NSCLC
HCC-2998 colon = test system: HCC-2998 colon
HCT-116 colon = test system: HCT-116 colon
HCT-15 colon = test system: HCT-15 colon
HL-60(TB) leukemia = test system: HL-60(TB) leukemia
HOP-18 NSCLC = test system: HOP-18 NSCLC
HOP-62 NSCLC = test system: HOP-62 NSCLC
HT29 colon = test system: HT29 colon
IGROV1 ovarian = test system: IGROV1 ovarian
K-562 leukemia = test system: K-562 leukemia
KM12 colon = test system: KM12 colon
KM20L2 colon = test system: KM20L2 colon
LOX IMVI melanoma = test system: LOX IMVI melanoma
LXFL 529 NSCLC = test system: LXFL 529 NSCLC
M14 melanoma = test system: M14 melanoma
M19-MEL melanoma = test system: M19-MEL melanoma
MALME-3M melanoma = test system: MALME-3M melanoma
MOLT-4 leukemia = test system: MOLT-4 leukemia
NCI-H226 lung = test system: NCI-H226 lung
NCI-H23 lung = test system: NCI-H23 lung
NCI-H460 lung = test system: NCI-H460 lung
NCI-H522 lung = test system: NCI-H522 lung
OVCAR-3 ovarian = test system: OVCAR-3 ovarian
OVCAR-4 ovarian = test system: OVCAR-4 ovarian
OVCAR-5 ovarian = test system: OVCAR-5 ovarian
OVCAR-8 ovarian = test system: OVCAR-8 ovarian
RPMI-8226 leukemia = test system: RPMI-8226 leukemia
RXF 393 renal = test system: RXF 393 renal
SF-268 CNS = test system: SF-268 CNS
SF-295 CNS = test system: SF-295 CNS
SF-539 CNS = test system: SF-539 CNS
SK-MEL-2 melanoma = test system: SK-MEL-2 melanoma
SK-MEL-28 melanoma = test system: SK-MEL-28 melanoma
SK-MEL-5 melanoma = test system: SK-MEL-5 melanoma
SK-OV-3 ovarian = test system: SK-OV-3 ovarian
SN12C renal = test system: SN12C renal
SNB-19 CNS = test system: SNB-19 CNS
SNB-75 CNS = test system: SNB-75 CNS
SNB-78 CNS = test system: SNB-78 CNS
SR leukemia = test system: SR leukemia
SW-620 colon = test system: SW-620 colon
TK-10 renal = test system: TK-10 renal
U251 CNS = test system: U251 CNS
UACC-257 melanoma = test system: UACC-257 melanoma
UACC-62 melanoma = test system: UACC-62 melanoma
UO-31 renal = test system: UO-31 renal
XF 498 CNS = test system: XF 498 CNS
HOP-92 NSCLC = test system: HOP-92 NSCLC

Cc1cc(Br)ccc1NC1=CC(=O)C(=O)c2ccccc21
TGI (786-0 renal): > 100 µM
TGI (A498 renal): > 100 µM
TGI (A549 NSCLC): > 100 µM
TGI (ACHN renal): > 100 µM
TGI (CAKI-1 renal): 53.1 µM
TGI (CCRF-CEM leukemia): > 100 µM
TGI (COLO 205 colon): > 100 µM
TGI (DLD-1 colon): > 100 µM
TGI (DMS 114 small cell lung): 45 µM
TGI (DMS 273 small cell lung): > 100 µM
TGI (EKVX NSCLC): > 100 µM
TGI (HCC-2998 colon): > 100 µM
TGI (HCT-116 colon): > 100 µM
TGI (HCT-15 colon): > 100 µM
TGI (HL-60(TB) leukemia): 38.5 µM
TGI (HOP-18 NSCLC): 57.1 µM
TGI (HOP-62 NSCLC): > 100 µM
TGI (HT29 colon): > 100 µM
TGI (IGROV1 ovarian): > 100 µM
TGI (K-562 leukemia): > 100 µM
TGI (KM12 colon): > 100 µM
TGI (KM20L2 colon): > 100 µM
TGI (LOX IMVI melanoma): 48.5 µM
TGI (LXFL 529 NSCLC): > 100 µM
TGI (M14 melanoma): > 100 µM
TGI (M19-MEL melanoma): 29.5 µM
TGI (MALME-3M melanoma): 53 µM
TGI (MOLT-4 leukemia): > 100 µM
TGI (NCI-H226 lung): > 100 µM
TGI (NCI-H23 lung): 32.4 µM
TGI (NCI-H460 lung): 78.2 µM
TGI (NCI-H522 lung): > 100 µM
TGI (OVCAR-3 ovarian): > 100 µM
TGI (OVCAR-4 ovarian): 31.1 µM
TGI (OVCAR-5 ovarian): > 100 µM
TGI (OVCAR-8 ovarian): > 100 µM
TGI (RPMI-8226 leukemia): > 100 µM
TGI (RXF 393 renal): 69.6 µM
TGI (SF-268 CNS): > 100 µM
TGI (SF-295 CNS): > 100 µM
TGI (SF-539 CNS): > 100 µM
TGI (SK-MEL-2 melanoma): > 100 µM
TGI (SK-MEL-28 melanoma): > 100 µM
TGI (SK-MEL-5 melanoma): 36.8 µM
TGI (SK-OV-3 ovarian): > 100 µM
TGI (SN12C renal): > 100 µM
TGI (SNB-19 CNS): > 100 µM
TGI (SNB-75 CNS): > 100 µM
TGI (SNB-78 CNS): > 100 µM
TGI (SR leukemia): > 100 µM
TGI (SW-620 colon): 89.1 µM
TGI (TK-10 renal): > 100 µM
TGI (U251 CNS): > 100 µM
TGI (UACC-257 melanoma): 39.4 µM
TGI (UACC-62 melanoma): 36.1 µM
TGI (UO-31 renal): > 100 µM
TGI (XF 498 CNS): 89.1 µM

COc1ccc(-c2c3ccccc3c(-c3ccc(OC)cc3)c3ccccc23)cc1
TGI (786-0 renal): > 100 µM
TGI (A498 renal): > 100 µM
TGI (A549 NSCLC): > 100 µM
TGI (ACHN renal): > 100 µM
TGI (CAKI-1 renal): > 100 µM
TGI (CCRF-CEM leukemia): > 100 µM
TGI (COLO 205 colon): > 100 µM
TGI (DLD-1 colon): > 100 µM
TGI (DMS 114 small cell lung): > 100 µM
TGI (DMS 273 small cell lung): > 100 µM
TGI (EKVX NSCLC): > 100 µM
TGI (HCC-2998 colon): > 100 µM
TGI (HCT-116 colon): > 100 µM
TGI (HCT-15 colon): > 100 µM
TGI (HL-60(TB) leukemia): > 100 µM
TGI (HOP-18 NSCLC): > 100 µM
TGI (HOP-62 NSCLC): > 100 µM
TGI (HOP-92 NSCLC): > 100 µM
TGI (HT29 colon): > 100 µM
TGI (IGROV1 ovarian): > 100 µM
TGI (K-562 leukemia): > 100 µM
TGI (KM12 colon): > 100 µM
TGI (KM20L2 colon): > 100 µM
TGI (LOX IMVI melanoma): > 100 µM
TGI (LXFL 529 NSCLC): > 100 µM
TGI (M14 melanoma): > 100 µM
TGI (M19-MEL melanoma): > 100 µM
TGI (MALME-3M melanoma): > 100 µM
TGI (MOLT-4 leukemia): > 100 µM
TGI (NCI-H226 lung): > 100 µM
TGI (NCI-H23 lung): > 100 µM
TGI (NCI-H460 lung): > 100 µM
TGI (NCI-H522 lung): > 100 µM
TGI (OVCAR-3 ovarian): > 100 µM
TGI (OVCAR-4 ovarian): > 100 µM
TGI (OVCAR-5 ovarian): > 100 µM
TGI (OVCAR-8 ovarian): > 100 µM
TGI (RPMI-8226 leukemia): > 100 µM
TGI (RXF 393 renal): > 100 µM
TGI (SF-268 CNS): > 100 µM
TGI (SF-295 CNS): > 100 µM
TGI (SF-539 CNS): > 100 µM
TGI (SK-MEL-2 melanoma): > 100 µM
TGI (SK-MEL-28 melanoma): > 100 µM
TGI (SK-MEL-5 melanoma): > 100 µM
TGI (SK-OV-3 ovarian): > 100 µM
TGI (SN12C renal): > 100 µM
TGI (SNB-19 CNS): > 100 µM
TGI (SNB-75 CNS): 95.7 µM
TGI (SNB-78 CNS): > 100 µM
TGI (SR leukemia): > 100 µM
TGI (SW-620 colon): > 100 µM
TGI (TK-10 renal): > 100 µM
TGI (U251 CNS): > 100 µM
TGI (UACC-257 melanoma): > 100 µM
TGI (UACC-62 melanoma): > 100 µM
TGI (UO-31 renal): > 100 µM
TGI (XF 498 CNS): > 100 µM
